Test system: VEGF
Assay: Hypoxia-inducible endogenous VEGF expression ELISA in HeLa cells
Type: cell-based
Conditions: Homo sapiens, HeLa, compounds 1-155, hypoxic conditions (1% O2), VEGF protein by ELISA, read-out: ELISA Activity
Experimental: The ability of compounds of the invention to modulate hypoxia-inducible endogenous VEGF expression is analyzed as follows. VEGF protein levels are monitored by an ELISA assay (R&D Systems). Briefly, HeLa cells are cultured for 24-48 hours under hypoxic conditions (1% O2, 5% CO2, balanced with nitrogen) in the presence or absence of a compound of the invention. The conditioned media is then assayed by ELISA, and the concentration of VEGF is calculated from the standard ELISA curve of each assay.
A dose-response analysis is performed using the ELISA assay and conditions described above. A series of different concentrations (e.g., seven) are analyzed. In parallel, a dose-response cytotoxicity assay is performed using Cell Titer Glo (Promega) under the same conditions as the ELISA to ensure that the inhibition of VEGF expression is not due to cytotoxicity. Dose-response curves are plotted using percentage inhibition versus concentration of the compound, and EC50 and CC50 values are generated for each compound with the maximal inhibition set as 100% and the minimal inhibition as 0%.
Compounds 156-188 in Table 1 are commercially available. In Table 1, each of the represented compounds is followed by one to five stars.

Row | EC50 [nM] | Compound
1 | > 1000 | O/N=C1\CCCc2c1[nH]c1ccc(Br)cc21 [Compound 87, 6-Bromo-2,3,4,9-tetrahydro-carbazol-1-one oxime]
2 | > 1000 | Cn1c2c(c3cc(Br)ccc31)CCCC2=O [Compound 88, 6-Bromo-9-methyl-2,3,4,9-tetrahydro-carbazol-1-one]
3 | > 1000 | NC1CCCc2c1[nH]c1ccc(Br)cc21 (stereo not shown) [Compound 89, 6-Bromo-2,3,4,9-tetrahydro-1H-carbazol-1-ylamine]
4 | > 1000 | O=C(Nc1ccccc1)C1CCCc2c1[nH]c1ccc(Br)cc21 (stereo not shown) [Compound 91, 6-Bromo-2,3,4,9-tetrahydro-1H-carbazole-1-carboxylic acid phenylamide]
5 | > 1000 | O/N=C1\CCCc2c1[nH]c1ccc(Cl)cc21 [Compound 93]
6 | > 1000 | NC1CCCc2c1[nH]c1c(Br)cccc21 (stereo not shown) [Compound 99, 8-Bromo-2,3,4,9-tetrahydro-1H-carbazol-1-ylamine]
7 | > 1000 | c1ccc2c3c([nH]c2c1)C(n1cccc1)CCC3 (stereo not shown) [Compound 102, 1-Pyrrol-1-yl-2,3,4,9-tetrahydro-1H-carbazole]
8 | 200 to 1000 | Cc1nnsc1C(=O)NC1CCCc2c1[nH]c1ccc(Br)cc21 (stereo not shown) [Compound 103, 4-Methyl-[1,2,3]thiadiazole-5-carboxylic acid (6-bromo-2,3,4,9-tetrahydro-1H-carbazol-1-yl)-amide]
9 | > 1000 | c1ccn(C2CCCc3c2[nH]c2ccc(N4CCOCC4)cc32)c1 (stereo not shown) [Compound 104, 6-Morpholin-4-yl-1-pyrrol-1-yl-2,3,4,9-tetrahydro-1H-carbazole]
10 | > 1000 | O=C1CCCc2c1oc1ccc(Br)cc21 [Compound 105, 8-Bromo-2,3-dihydro-1H-dibenzofuran-4-one]
11 | > 1000 | Brc1ccc2oc3c(c2c1)CCCC3Nc1ccccc1 (stereo not shown) [Compound 107, (8-Bromo-1,2,3,4-tetrahydro-dibenzofuran-4-yl)-phenyl-amine]
12 | > 1000 | OC1CCCc2c1oc1ccc(Br)cc21 (stereo not shown) [Compound 108, 8-Bromo-1,2,3,4-tetrahydro-dibenzofuran-4-ol]
13 | > 1000 | Brc1ccc2[nH]c3c(c2c1)CCc1cnn(-c2ccccc2)c1-3 [Compound 109, 7-Bromo-1-phenyl-1,4,5,10-tetrahydro-1,2,10-triaza-cyclopenta[a]fluorine]
14 | > 1000 | Brc1ccc2[nH]c3c(c2c1)CCCC3c1nnc(-c2ccccc2)o1 (stereo not shown) [Compound 111, 6-Bromo-1-(5-phenyl-[1,3,4]oxadiazol-2-yl)-2,3,4,9-tetrahydro-1H-carbazole]
15 | > 1000 | O=C(O)c1ccn(C2CCCc3c2[nH]c2ccc(Br)cc32)c1 (stereo not shown) [Compound 113, 1-(6-Bromo-2,3,4,9-tetrahydro-1H-carbazol-1-yl)-1H-pyrrole-3-carboxylic acid]
16 | > 1000 | COC(=O)c1ccc2[nH]c3c(c2c1)CCCC3n1cccc1 (stereo not shown) [Compound 115, 8-Pyrrol-1-yl-6,7,8,9-tetrahydro-5H-carbazole-3-carboxylic acid methyl ester]
17 | > 1000 | Cn1c2c(c3cc(Br)ccc31)CCCC2n1cccc1 (stereo not shown) [Compound 117, 6-Bromo-9-methyl-1-pyrrol-1-yl-2,3,4,9-tetrahydro-1H-carbazole]
18 | > 1000 | NC(=O)c1ccc2[nH]c3c(c2c1)CCCC3n1cccc1 (stereo not shown) [Compound 119, 8-Pyrrol-1-yl-6,7,8,9-tetrahydro-5H-carbazole-3-carboxylic acid amide]
19 | > 1000 | O=C(O)c1ccc2[nH]c3c(c2c1)CCCC3n1cccc1 (stereo not shown) [Compound 120, 8-Pyrrol-1-yl-6,7,8,9-tetrahydro-5H-carbazole-3-carboxylic acid]
20 | 40 to 200 | O=C(NC1CCCc2c1[nH]c1ccc(Br)cc21)c1ccc(-c2ccc(Cl)cc2)o1 (stereo not shown) [Compound 125, 5-(4-Chloro-phenyl)-furan-2-carboxylic acid (6-bromo-2,3,4,9-tetrahydro-1H-carbazol-1-yl)-amide]
21 | 40 to 200 | O=C(NC1CCCc2c1[nH]c1ccc(Br)cc21)c1cc2ccccc2[nH]1 (stereo not shown) [Compound 127, 1H-lndole-2-carboxylic acid (6-bromo-2,3,4,9-tetrahydro-1H-carbazol-1-yl)-amide]

More lines, now with the values behind:

Row | Compound | EC50 [nM]
22 | Brc1ccc2[nH]c3c(c2c1)CCc1cnoc1-3 [Compound 78, 7-Bromo-4,10-dihydro-5H-1-oxa-2,10-diaza-cyclopenta[a]fluorine] | > 1000
23 | CC(C)(C)CCNC1CCCc2c1[nH]c1ccc(Br)cc21 (stereo not shown) [Compound 79, (6-Bromo-2,3,4,9-tetrahydro-1H-carbazol-1-yl)-(3,3-dimethyl-butyl)-amine] | > 1000
24 | CC(C)(C)OC(=O)n1c2c(c3cc(Br)ccc31)CCCC2=O [Compound 80, 6-Bromo-1-oxo-1,2,3,4-tetrahydro-carbazole-9-carboxylic acid tert-butyl ester] | > 1000
25 | O=C(Nc1ccccc1)NC1CCCc2c1[nH]c1ccc(Br)cc21 (stereo not shown) [Compound 81, 1-(6-Bromo-2,3,4,9-tetrahydro-1H-carbazol 1-yl)-3-phenyl-urea] | > 1000
26 | Brc1ccc2[nH]c3c(c2c1)CCCC3 [Compound 83, 6-Bromo-2,3,4,9-tetrahydro-1H-carbazole] | > 1000
27 | COc1ccc2[nH]c3c(c2c1)CCC/C3=N\O [Compound 84, 6-Methoxy-2,3,4,9-tetrahydro-carbazol-1 one oxime] | > 1000
28 | O=C(O)C1CCCc2c1[nH]c1ccc(Br)cc21 (stereo not shown) [Compound 85, 6-Bromo-2,3,4,9-tetrahydro-1H-carbazole-1-carboxylic acid] | > 1000
29 | CC(=O)n1c2c(c3cc(Br)ccc31)CCCC2 [Compound 86, 1-(6-Bromo-1,2,3,4-tetrahydro-carbazol-9-yl)-ethanone] | > 1000
30 | CCOC(=O)C1CCCc2c1[nH]c1ccc(Br)cc21 (stereo not shown) [Compound 90, 6-Bromo-2,3,4,9-tetrahydro-1H-carbazole-1-carboxylic acid ethyl ester] | > 1000
31 | O/N=C1\CCCc2c1[nH]c1cc(Br)ccc21 [Compound 92, 7-Bromo-2,3,4,9-tetrahydro-carbazol-1-one oxime] | > 1000
32 | NC1CCCc2c1[nH]c1cc(Br)ccc21 (stereo not shown) [Compound 94, 7-Bromo-2,3,4,9-tetrahydro-1H-carbazol-1-ylamine; compound with methane] | > 1000
33 | COc1ccc2[nH]c3c(c2c1)CCCC3N (stereo not shown) [Compound 95, 6-Methoxy-2,3,9-tetrahydro-1H-carbazol-1-ylamine] | > 1000
34 | NC1CCCc2c1[nH]c1ccc(Cl)cc21 (stereo not shown) [Compound 96, 6-Chloro-2,3,4,9-tetrahydro-1H-carbazol-1-ylamine] | > 1000
35 | O=C1CCCc2c1[nH]c1c(Br)cccc21 [Compound 97, 8-Bromo-2,3,4,9-tetrahydro-carbazol-1-one] | > 1000
36 | O/N=C1\CCCc2c1[nH]c1c(Br)cccc21 [Compound 98, 8-Bromo-2,3,4,9-tetrahydro-carbazol-1-one oxime] | > 1000
37 | Cc1nnc(C2CCCc3c2[nH]c2ccc(Br)cc32)o1 (stereo not shown) [Compound 100, 6-Bromo-1-(5-methyl-[1,3,4]oxadiazol-2-yl)-2,3,4,9-tetrahydro-1H-carbazole] | > 1000
38 | c1ccc2c3c([nH]c2c1)C(Nn1cccc1)CCC3 (stereo not shown) [Compound 101, Pyrrol-1-yl-(2,3,4,9-tetrahydro-1H-carbazol-1-yl)-amine] | > 1000
39 | c1ccn(C2CCCc3c2[nH]c2ccc(N4CCCC4)cc32)c1 (stereo not shown) [Compound 106, 6-Pyrrolidin-1-yl-1-pyrrol-1-yl-2,3,4,9-tetrahydro-1H-carbazole] | > 1000
40 | O=C1CCCc2c1[nH]c1cc(Br)ccc21 [Compound 110, 7-Bromo-2,3,4,9-tetrahydro-carbazol-1-one] | > 1000
41 | O=C1N(c2ccccc2)C2CCCc3c2n1c1ccc(Br)cc31 (stereo not shown) [Compound 112, 7-Bromo-2-phenyl-2a,3,4,5-tetrahydro-2H-2,9b-diaza-cyclopenta[jk]fluoren-1-one] | > 1000
42 | Brc1ccc2[nH]c3c(c2c1)CCCC3NCCCn1ccnc1 (stereo not shown) [Compound 114, (6-Bromo-2,3,4,9-tetrahydro-1H-carbazol-1-yl)-(3-imidazol-1-yl-propyl)-amine] | > 1000
43 | Brc1ccc2[nH]c3c(c2c1)CCCC3N1CCCC1 (stereo not shown) [Compound 116, 6-Bromo-1-pyrrolidin-1-yl-2,3,4,9-tetrahydro-1H-carbazole] | > 1000
44 | Brc1cccc2c3c([nH]c12)C(n1cccc1)CCC3 (stereo not shown) [Compound 118, 8-Bromo-1-pyrrol-1-yl-2,3,4,9-tetrahydro-1H-carbazole] | > 1000
45 | Brc1ccc2c3c([nH]c2c1)C(n1cccc1)CCC3 (stereo not shown) [Compound 121, 7-Bromo-1-pyrrol-1-yl-2,3,4,9-tetrahydro-1H-carbazole] | > 1000
46 | Brc1ccc2[nH]c3c(c2c1)CCCC3NCCN1CCOCC1 (stereo not shown) [Compound 122, (6-Bromo-2,3,4,9-tetrahydro-1H-carbazol-1-yl)-(2-morpholin-4-yl-ethyl)-amine] | > 1000
47 | O=C(NC1CCCc2c1[nH]c1ccc(Br)cc21)c1ccco1 (stereo not shown) [Compound 123, Furan-2-carboxylic acid (6-bromo-2,3,4,9-tetrahydro-1H-carbazol-1-yl)-amide] | 10 to 40
48 | O=C(NC1CCCc2c1[nH]c1ccc(Br)cc21)c1cc2ccccc2o1 (stereo not shown) [Compound 124, Benzofuran-2-carboxylic acid (6-bromo-2,3,4,9-tetrahydro-1H-carbazol-1-yl)-amide] | 200 to 1000
49 | O=C(NC1CCCc2c1[nH]c1ccc(Br)cc21)c1ccc[nH]1 (stereo not shown) [Compound 126, 1H-Pyrrole-2-carboxylic acid (6-bromo-2,3,4,9-tetrahydro-1H-carbazol-1-yl)-amide] | 40 to 200
